Data set [1] in a line: biological activity of separated enantiomers / diastereomers (test not specified). Conditions: enantiomers compared by order of elution; test and target not stated.

These results are taken from patent publication US7122551B2, “Metalloproteinase inhibitor compounds” (AstraZeneca AB, priority 2000, dated 2006).

As for `O=CN(O)[C@@H](CCc1ncccn1)CS(=O)(=O)N1CCN(c2ccc(Cl)cn2)CC1` [Example 6 2nd enantiomer eluted, N-[(1S)-1-({[4-(5-chloropyridin-2-yl)piperazino]sulfonyl}methyl)-3-(pyrimidin-2-yl)propyl]-N-hydroxyformamide], the “Biological activity of separated enantiomers” value in data set [1] is reported as “Biological activity lies in the compound eluted second from the column”. In turn, `O=CN(O)C(CCc1ncc(F)cn1)CS(=O)(=O)N1CCN(c2ccc(Cl)cn2)CC1` (stereo not drawn) [Example 2, N-[1-([4-(5-chloropyridin-2-yl)piperazino]sulfonylmethyl)-3-(5-fluoropyrimidin-2-yl)propyl]-N-hydroxyformamide] showed a melting point of 154 to 155 °C. The same measure, in the same setting: in the case of `O=CN(O)[C@@H](CCCc1ncccn1)CS(=O)(=O)N1CCN(c2ccc(Cl)cn2)CC1` [Example 4, N-[(1S)-1-({[4-(5-chloropyridin-2-yl)piperazino]sulfonyl}methyl)-4-(pyrimidin-2-yl)butyl]-N-hydroxyformamide] it was 124.5 to 126.5 °C.

Broadly, the melting point is the temperature of the solid-liquid transition.
